Test results as given in patent US8614227B2, “Salt and solvates of a tetrahydroisoquinoline derivative” (Spinifex Pharmaceuticals Pty Ltd, priority 2010, dated 2013).
Read-outs that look alike come from different tables or passages of the source.

Legend:
[1] = Compound 2 solubility in solvents and buffers (saturated, 24 h shaking, HPLC); format: physicochemical; conditions: 50 mM phosphate buffer, aqueous buffer, thermodynamic from solid; pH 3 buffer (phosphate, 50 mM)
[2] = dog, in vivo, po, 10 mg/kg
Protocol: (§1) The study was designed to compare the PK profiles of the following four forms of Compound 1 administered as single oral capsules in fasted state. […] There was a washout period of 4 days between dosing. The blood samples were collected from each animal at predetermined times on the study Days 1, 4, 8 and 11. The plasma was analyzed for Compound 1 by a validated HPLC-MS/MS assay.
(§2) Descriptive PK parameters were determined by standard model independent methods (Gibaldi and Perrier, 1982) based on the individual plasma concentration-time data. Plasma concentrations were rounded to 3 significant figures. Plasma samples with concentrations below the quantifiable assay limit (BQL<2.00 ng/mL) were assigned values of zero for mean calculations. For PK calculations, BQL was set to zero from the pre-dose time up to the time of the first quantifiable concentration and thereafter was set as missing. Nominal time points were used for all calculations. • Cmax is the observed maximum plasma concentration after dosing. • Tmax is the time to reach Cmax. • T1/2 is apparent half-life calculated by ln(2)/λ where λ is the rate constant fix the log-linear portion of the terminal phase. A minimum of three values in the post-distribution phase of the plasma concentration-time curve is required for calculation of X. • AUC(0-T) is the area under the plasma concentration-time curve from time zero to the time of the last measurable plasma concentration determined using the linear trapezoidal rule. • AUC(0-inf) is the area under the plasma concentration-time curve from time zero to infinity. It is calculated by summing AUC(0-T) and the extrapolated area from the T to infinity.
(§3) PK analyses were performed by noncompartmental analysis using model 200 in WinNonlin Professional 6.1 (Pharsight Corp., Mountain View, Calif.).

[3] = Pharmacokinetics in male beagle dogs after a single oral dose (plasma Compound 1); conditions: dog, 10 mg/kg
Protocol: as §1, §2, §3

[4] = Compound 2 solubility in solvents and buffers (saturated, 24 h shaking, HPLC); format: physicochemical; conditions: for solubility at 24 h: thermodynamic from solid
Protocol: Solubility of Compound 2 in a solvent, selected from water, methanol, acetonitrile (ACN) and iso-propanol and in 50 mM phosphate buffer at pH 1, 2, 7 and 8, 50 mM citrate buffer at pH 3, 4, 5 and 6 and in 50 mM borate buffer at pH 9 was assessed. Compound 2 was added to 10 mL of the solvent or buffer until the solution was visibly saturated and remained cloudy upon vortex mixing. Each sample was placed on a reciprocal shaker at room temperature for 24 hours then filtered through a 0.45 μm nylon filter to remove excess suspended compound. The samples were then diluted where required in accordance with Table 24, and analyzed by HPLC. The results were compared with a standard curve of known concentrations in ACN.

[5] = Compound 2 solution stability, one week (HPLC % purity); format: physicochemical; conditions: for Δ% Purity at 5° C. / Δ% Purity at 25° C./60% RH: 1 week; for Initial % Purity: t=0
Protocol: The above analysis was taken as t=0 and the samples were then divided in two and one of each sample was stored at 5° C. for one week and the other of each sample was stored at 25° C./60% relative humidity (RH) for one week.
After one week, the samples were allowed to equilibrate to room temperature and if required (H2O and pH 7-9 samples stored at 5° C.) refiltered to remove precipitate.
The samples were reanalyzed by HPLC.

[6] = Dissolution comparison of solid sodium salt forms in capsules; format: physicochemical
Protocol: Dissolution of three forms of solid sodium salt were analyzed, a monosodium trihydrate (Compound 6), a monosodium salt dihydrate (Compound 7) and amorphous Compound 2.
The crystalline material was made by exposing amorphous Compound 2 to ambient temperature/75% RH for 24 hrs. These conditions were created using a saturated sodium chloride solution sealed in a desiccant chamber. Once the crystalline material had been created it was collected and stored at 2-8° C. until dissolution testing took place. Two samples for dissolution were prepared by weighing 25 mg±1 mg into size 00 white opaque gelatin capsules.
Crystalline Compound 7 dihydrate was made by placing a sample of the iso-propanol solvate of Compound 2 at ambient temperature and humidity conditions for 2 weeks. The iso-propanol solvate of Compound 2 readily converts to the dihydrate. Once Compound 7 had been prepared, it was collected and stored at 2-8° C. until dissolution testing was conducted. Two samples for dissolution were prepared by weighing 25 mg±1 mg into size 00 white opaque gelatin capsules.
Two samples for dissolution were prepared by weighing 25 mg±1 mg of amorphous Compound 2 into size 00 white opaque gelatin capsules.
The dissolution materials and parameters are set out in Table 33. At each pull time ˜6 mL of media was removed from each vessel and filtered through a 0.45 μm nylon filter. The first 5 mL of solution was discarded and the final 1 mL was collected in a UPLC vial for analysis.

[7] = Table 42 summary, mean, dogs, single oral 10 mg/kg, plasma Compound 1
[8] = dog 301, single oral 10 mg/kg dose, plasma Compound 1
[9] = dog 302, single oral 10 mg/kg dose, plasma Compound 1
[10] = dog 303, single oral 10 mg/kg dose, plasma Compound 1
[11] = dog 304, single oral 10 mg/kg dose, plasma Compound 1
[12] = mean of dogs, single oral 10 mg/kg dose, plasma Compound 1

SMILES: COc1ccc2c(c1OCc1ccccc1)C[C@@H](C(=O)[O-])N(C(=O)C(c1ccccc1)c1ccccc1)C2.[Na+] [Compound 2, sodium salt of (S)-2-(diphenylacetyl)-1,2,3,4-tetrahydro-6-methoxy-5-(phenylmethoxy)-3-isoquinoline carboxylic acid]
- solubility at 24 h [1]: < 0.001 mg/mL
- Plasma concentration of Compound 1, 0.25 h [2]: BQL
- Plasma concentration of Compound 1, 0.5 h [2]: BQL
- Plasma concentration of Compound 1, 24 h [2]: BQL
- Plasma concentration of Compound 1, Predose [2]: BQL
- Plasma concentration of Compound 1, Predose ([2]; male, beagle): 0 µg/mL
- AUC(0-t) [3, 7]: 1.84 µg·h/mL
- AUC(0-t) [3, 8]: 1.29 µg·h/mL
- AUC(0-t) [3, 9]: 2.35 µg·h/mL
- AUC(0-t) [3, 10]: 1.52 µg·h/mL
- AUC(0-t) [3, 11]: 2.18 µg·h/mL
- AUC(0-t) [3, 12]: 1.83 µg·h/mL
- AUC(0-inf) [3, 7]: 1.84 µg·h/mL
- AUC(0-inf) [3, 8]: 1.3 µg·h/mL
- AUC(0-inf) [3, 9]: 2.35 µg·h/mL
- AUC(0-inf) [3, 10]: 1.52 µg·h/mL
- AUC(0-inf) [3, 11]: 2.22 µg·h/mL
- AUC(0-inf) [3, 12]: 1.84 µg·h/mL
- Cmax ([3]; Cmax, dog 301, single oral 10 mg/kg dose, plasma Compound 1): 1.11 µg/mL
- Cmax ([3]; Cmax, dog 302, single oral 10 mg/kg dose, plasma Compound 1): 1.22 µg/mL
- Cmax ([3]; Cmax, dog 303, single oral 10 mg/kg dose, plasma Compound 1): 1.75 µg/mL
- Cmax ([3]; Cmax, dog 304, single oral 10 mg/kg dose, plasma Compound 1): 2.27 µg/mL
- Cmax ([3]; Cmax, mean of dogs, single oral 10 mg/kg dose, plasma Compound 1): 1.59 µg/mL
- half-life ([3]; Mean harmonic T1/2, male beagle dogs, single oral 10 mg/kg capsule, fasted, Compound 1 in plasma): 2.49 ± 0.391 h
- half-life ([3]; T1/2, Table 42 summary, harmonic mean, dogs, single oral 10 mg/kg, plasma Compound 1): 2.49 h
- half-life ([3]; T1/2, dog 301, single oral 10 mg/kg dose, plasma Compound 1): 2.51 h
- half-life ([3]; T1/2, dog 302, single oral 10 mg/kg dose, plasma Compound 1): 2.73 h
- half-life ([3]; T1/2, dog 303, single oral 10 mg/kg dose, plasma Compound 1): 2.05 h
- half-life ([3]; T1/2, dog 304, single oral 10 mg/kg dose, plasma Compound 1): 2.81 h
- half-life ([3]; T1/2, harmonic mean of dogs, single oral 10 mg/kg dose, plasma Compound 1): 2.49 h
- Tmax ([3]; Tmax, Table 42 summary, median, dogs, single oral 10 mg/kg, plasma Compound 1): 0.75 h
- Tmax ([3]; Tmax, dog 301, single oral 10 mg/kg dose, plasma Compound 1): 0.75 h
- Tmax ([3]; Tmax, dog 302, single oral 10 mg/kg dose, plasma Compound 1): 1 h
- Tmax ([3]; Tmax, dog 303, single oral 10 mg/kg dose, plasma Compound 1): 0.75 h
- Tmax ([3]; Tmax, dog 304, single oral 10 mg/kg dose, plasma Compound 1): 0.5 h
- Tmax ([3]; Tmax, median of dogs (Mean column), single oral 10 mg/kg dose, plasma Compound 1): 0.75 h
- Cmax ([3]; mean Cmax, male beagle dogs, single oral 10 mg/kg capsule, fasted, Compound 1 in plasma, mean±SD): 1.59 ± 0.534 µg/mL
- Tmax ([3]; median Tmax, male beagle dogs, single oral 10 mg/kg capsule, fasted, Compound 1 in plasma): 0.75 h
- solubility at 24 h ([4]; 50 mM borate buffer, aqueous buffer, pH 9 buffer (borate, 50 mM)): 5.3 mg/mL
- solubility at 24 h ([4]; 50 mM citrate buffer, aqueous buffer, pH 4 buffer (citrate, 50 mM)): < 0.001 mg/mL
- solubility at 24 h ([4]; 50 mM citrate buffer, aqueous buffer, pH 5 buffer (citrate, 50 mM)): 0.033 mg/mL
- solubility at 24 h ([4]; 50 mM citrate buffer, aqueous buffer, pH 6 buffer (citrate, 50 mM)): 0.9 mg/mL
- solubility at 24 h ([4]; 50 mM phosphate buffer, aqueous buffer, pH 1 buffer (phosphate, 50 mM), room temperature 24 h): < 0.001 mg/mL
- solubility at 24 h ([4]; 50 mM phosphate buffer, aqueous buffer, pH 2 buffer (phosphate, 50 mM)): < 0.001 mg/mL
- solubility at 24 h ([4]; 50 mM phosphate buffer, aqueous buffer, pH 7 buffer (phosphate, 50 mM)): 1.7 mg/mL
- solubility at 24 h ([4]; 50 mM phosphate buffer, aqueous buffer, pH 8 buffer (phosphate, 50 mM)): 1.6 mg/mL
- Solubility ([4]; Methanol): >50 mg/mL
- solubility at 24 h ([4]; acetonitrile, organic solvent or mixture): 12 mg/mL
- solubility at 24 h ([4]; iso-propanol, organic solvent or mixture, IPA): 0.7 mg/mL
- solubility at 24 h ([4]; methanol, organic solvent or mixture): > 50 mg/mL
- solubility at 24 h ([4]; water): 14 mg/mL
- t = 1 week % Purity at 5° C. ([5]; pH 6 buffer solution): 87.02%
- t = 1 week % Purity at 25° C./60% RH ([5]; pH 6 buffer solution): 88.98%
- Δ% Purity at 5° C. ([5]; pH 6 buffer solution): −1.35%
- Δ% Purity at 25° C./60% RH ([5]; pH 6 buffer solution): +0.61%
- Initial % Purity ([5]; pH 6 buffer solution): 88.37%
- t = 1 week % Purity at 5° C. ([5]; pH 7 buffer solution): 74.27%
- t = 1 week % Purity at 25° C./60% RH ([5]; pH 7 buffer solution): 76.52%
- Δ% Purity at 5° C. ([5]; pH 7 buffer solution): −1.85%
- Δ% Purity at 25° C./60% RH ([5]; pH 7 buffer solution): +0.40%
- Initial % Purity ([5]; pH 7 buffer solution): 76.12%
- t = 1 week % Purity at 5° C. ([5]; pH 8 buffer solution): 81.45%
- t = 1 week % Purity at 25° C./60% RH ([5]; pH 8 buffer solution): 86.70%
- Δ% Purity at 5° C. ([5]; pH 8 buffer solution): −4.09%
- Δ% Purity at 25° C./60% RH ([5]; pH 8 buffer solution): +1.16%
- Initial % Purity ([5]; pH 8 buffer solution): 85.54%
- t = 1 week % Purity at 5° C. ([5]; pH 9 buffer solution): 89.17%
- t = 1 week % Purity at 25° C./60% RH ([5]; pH 9 buffer solution): 91.60%
- Δ% Purity at 5° C. ([5]; pH 9 buffer solution): −2.07%
- Δ% Purity at 25° C./60% RH ([5]; pH 9 buffer solution): +0.36%
- Initial % Purity ([5]; pH 9 buffer solution): 91.24%
- t = 1 week % Purity at 5° C. ([5]; solution in ACN): 97.50%
- t = 1 week % Purity at 25° C./60% RH ([5]; solution in ACN): 97.46%
- Δ% Purity at 5° C. ([5]; solution in ACN): 0.00%
- Δ% Purity at 25° C./60% RH ([5]; solution in ACN): −0.04%
- Initial % Purity ([5]; solution in ACN): 97.50%
- t = 1 week % Purity at 5° C. ([5]; solution in H2O): 94.66%
- t = 1 week % Purity at 25° C./60% RH ([5]; solution in H2O): 95.67%
- Δ% Purity at 5° C. ([5]; solution in H2O): −0.92%
- Δ% Purity at 25° C./60% RH ([5]; solution in H2O): +0.09%
- Initial % Purity ([5]; solution in H2O): 95.58%
- t = 1 week % Purity at 5° C. ([5]; solution in IPA): 89.59%
- t = 1 week % Purity at 25° C./60% RH ([5]; solution in IPA): 90.51%
- Δ% Purity at 5° C. ([5]; solution in IPA): +0.31%
- Δ% Purity at 25° C./60% RH ([5]; solution in IPA): +1.23%
- Initial % Purity ([5]; solution in IPA): 89.28%
- t = 1 week % Purity at 5° C. ([5]; solution in MeOH): 97.52%
- t = 1 week % Purity at 25° C./60% RH ([5]; solution in MeOH): 97.39%
- Δ% Purity at 5° C. ([5]; solution in MeOH): +0.13%
- Δ% Purity at 25° C./60% RH ([5]; solution in MeOH): 0.00%
- Initial % Purity ([5]; solution in MeOH): 97.39%
- % Dissolution ([6]; 15 mins, 25 mg in gelatin capsule, pH 6.8 phosphate buffer 900 mL, 37° C., 50 RPM): 77.8%
- % Dissolution ([6]; 30 mins, pH 6.8 phosphate buffer, 50 RPM): 83.6%
- % Dissolution ([6]; 45 mins, pH 6.8 phosphate buffer, 50 RPM): 86.3%
- % Dissolution ([6]; 60 mins, pH 6.8 phosphate buffer, 50 RPM): 88.8%
- % Dissolution ([6]; 120 mins, pH 6.8 phosphate buffer, 150 RPM for 2nd hour): 92.9%
- dissolution rate (comparison of forms) ([6]; pH 6.8 phosphate buffer, capsules): dissolved considerably faster
